These results are taken from patent US12503482B2, “Compositions and methods for trehalose phospholipids” (The Brigham and Women's Hospital, Inc., priority 2019, dated 2025).

Holding throughout (format): cell-based
In one assay the target is T1, murine Mincle (Mus musculus, UniProt Q9R0Q8).
T1 construct: expressed in transfected cells; host or cells: 2B4-NFAT-GFP cells
T1 sequence (Q9R0Q8 1-214): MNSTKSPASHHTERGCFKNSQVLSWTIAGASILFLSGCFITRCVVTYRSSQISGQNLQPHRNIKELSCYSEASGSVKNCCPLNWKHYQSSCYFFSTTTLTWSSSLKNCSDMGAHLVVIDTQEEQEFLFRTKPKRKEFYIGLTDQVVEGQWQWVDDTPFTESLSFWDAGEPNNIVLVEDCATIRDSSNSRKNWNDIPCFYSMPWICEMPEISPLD
T1 sequence (P20491 19-86 partner): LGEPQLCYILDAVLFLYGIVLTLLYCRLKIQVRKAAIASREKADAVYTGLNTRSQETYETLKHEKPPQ
Put plainly: Mincle activation assay, murine Mincle-FcRγ GFP reporter cell line with plate-coated lipids.

The target in another assay is T2, human Mincle (Homo sapiens, UniProt Q9ULY5).
T2 construct: expressed in transfected cells; host or cells: 2B4-NFAT-GFP cells
T2 sequence (Q9ULY5 1-219): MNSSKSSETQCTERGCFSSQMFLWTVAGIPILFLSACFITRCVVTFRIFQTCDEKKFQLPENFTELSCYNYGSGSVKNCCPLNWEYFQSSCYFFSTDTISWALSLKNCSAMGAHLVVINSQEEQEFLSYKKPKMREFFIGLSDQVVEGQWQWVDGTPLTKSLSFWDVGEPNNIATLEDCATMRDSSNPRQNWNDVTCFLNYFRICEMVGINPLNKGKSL
T2 sequence (P30273 19-86 partner): T1 sequence (P20491 19-86 partner) with V13I, A38T, R40Y, A43S, A45G, N51S, S54N
Nature of the assay: Mincle activation assay, human Mincle-FcRγ GFP reporter cell line with plate-coated lipids. Particulars: FIG. 3D.

In the next assay the test system is FcRγ. Nature of the assay: Negative control reporter cell line expressing FcRγ only. Particulars: FIG. 3D.

Numbering of substitutions follows the chain as printed. Like-named read-outs stand apart in the source and are kept apart here.

For the compound “6,6′-diphosphatidyltrehalose [natural diPT]”, the “amount of coated lipid at which reporter cells respond (GFP expression)” value (from here on “amount of coated lipid”) on murine Mincle was 5 ng.
Turning to `CCCCCCCCCCCCCCCC(=O)OC[C@H](COP(=O)(O)OCC1OC(OC2OC(COP(=O)(O)OC[C@@H](COC(=O)CCCCCCCCCCCCCCC)OC(=O)CCCCCCC[C@H]3C[C@H]3CCCCCC)C(O)C(O)C2O)C(O)C(O)C1O)OC(=O)CCCCCCC[C@H]1C[C@H]1CCCCCC` (some centres unmarked) [synthetic diPT, 6,6′-diphosphatidyltrehalose], the “relative sensitivity of murine Mincle to diPT versus TDM” value on murine Mincle (FIG. 3D) was “the opposite is true”. Besides, the “activation of murine Mincle reporter cell line” value at murine Mincle (comparison of murine and human reporter lines, FIG. 3D) is listed as “activation present at nanogram levels”. Moreover, the “amount of coated lipid” value on murine Mincle (murine Mincle-FcRγ reporter cell line, plate-coated lipid, FIG. 3C) is given as 20 ng. In addition, the “relative sensitivity of human Mincle to diPT versus TDM” value at human Mincle was “marginally more sensitive to diPT than to TDM”. Moreover, the “activation of human Mincle reporter cell line” value on human Mincle (comparison of murine and human reporter lines) was “activation present at nanogram levels”. Moreover, the “activation of negative control cell line expressing FcRγ only” value in the assay with FcRγ is listed as “failed to activate”.
For the compound “trehalose dimycolate [TDM, reference compound]”, on murine Mincle, the “amount of coated lipid” value is reported as 5 ng.
